Reference: the supplement of paper PMC10307832

Experiments:
Experiment in all cases: relative viability (nuclei count vs DMSO), 5 days (fraction); higher = more cells survive
BI-D1870 + Navitoclax = compound: CC(C)CCN1c2nc(Nc3cc(F)c(O)c(F)c3)ncc2N(C)C(=O)C1C [BI-D1870] + CC1(C)CCC(c2ccc(Cl)cc2)=C(CN2CCN(c3ccc(C(=O)NS(=O)(=O)c4ccc(N[C@H](CCN5CCOCC5)CSc5ccccc5)c(S(=O)(=O)C(F)(F)F)c4)cc3)CC2)C1 [Navitoclax] (partner 0.5 µM)
In short: (§1)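 Relative viability equals treated-well nuclei counts divided by vehicle-well nuclei counts. Counts came from 4× images of lung cancer cell lines grown in 1536-well plates for 5 days after pin-tool dosing on the day after seeding. Dosing used one drug alone or a fixed anchor-drug dose plus five library-drug doses (not always all listed) in √10 steps, and values are medians of duplicate plates.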

BI-D1870 + Lapatinib = compound: CC(C)CCN1c2nc(Nc3cc(F)c(O)c(F)c3)ncc2N(C)C(=O)C1C [BI-D1870] + CS(=O)(=O)CCNCc1ccc(-c2ccc3ncnc(Nc4ccc(OCc5cccc(F)c5)c(Cl)c4)c3c2)o1 [Lapatinib] (partner 2 µM)
In short: as §1

Zebularine + Luminespib = compound: O=c1ncccn1[C@@H]1O[C@H](CO)[C@@H](O)[C@H]1O [Zebularine] + CCNC(=O)c1noc(-c2cc(C(C)C)c(O)cc2O)c1-c1ccc(CN2CCOCC2)cc1 [Luminespib] (partner 0.01 µM)
In short: as §1

Zebularine + Dasatinib = compound: O=c1ncccn1[C@@H]1O[C@H](CO)[C@@H](O)[C@H]1O [Zebularine] + Cc1nc(Nc2ncc(C(=O)Nc3c(C)cccc3Cl)s2)cc(N2CCN(CCO)CC2)n1 [Dasatinib] (partner 0.075 µM)
In short: as §1

Cell Line: LXF-289
- relative viability (BI-D1870 + Navitoclax; first compound 0.04 µM): 0.951
- relative viability (BI-D1870 + Navitoclax; first compound 0.1265 µM): 0.923
- relative viability (BI-D1870 + Navitoclax; first compound 0.4 µM): 0.94
- relative viability (BI-D1870 + Navitoclax; first compound 1.265 µM): 0.936
- relative viability (BI-D1870 + Navitoclax; first compound 4 µM): 0.895
- relative viability (BI-D1870 + Lapatinib; first compound 0.04 µM): 0.927
- relative viability (BI-D1870 + Lapatinib; first compound 0.1265 µM): 0.831
- relative viability (BI-D1870 + Lapatinib; first compound 0.4 µM): 0.881
- relative viability (BI-D1870 + Lapatinib; first compound 1.265 µM): 0.87
- relative viability (BI-D1870 + Lapatinib; first compound 4 µM): 0.788
- relative viability (Zebularine + Luminespib; first compound 1 µM): 0.729
- relative viability (Zebularine + Luminespib; first compound 3.162 µM): 0.75
- relative viability (Zebularine + Luminespib; first compound 10 µM): 0.444
- relative viability (Zebularine + Luminespib; first compound 31.62 µM): 0.382
- relative viability (Zebularine + Luminespib; first compound 100 µM): 0.202
- relative viability (Zebularine + Dasatinib; first compound 1 µM): 0.233
- relative viability (Zebularine + Dasatinib; first compound 3.162 µM): 0.187
- relative viability (Zebularine + Dasatinib; first compound 10 µM): 0.184
- relative viability (Zebularine + Dasatinib; first compound 31.62 µM): 0.175
- relative viability (Zebularine + Dasatinib; first compound 100 µM): 0.154

Cell Line: PC-14
- relative viability (BI-D1870 + Navitoclax; first compound 0.04 µM): 1.08
- relative viability (BI-D1870 + Navitoclax; first compound 0.1265 µM): 0.961
- relative viability (BI-D1870 + Navitoclax; first compound 0.4 µM): 0.991
- relative viability (BI-D1870 + Navitoclax; first compound 1.265 µM): 1.07
- relative viability (BI-D1870 + Navitoclax; first compound 4 µM): 0.928
- relative viability (BI-D1870 + Lapatinib; first compound 0.04 µM): 0.36
- relative viability (BI-D1870 + Lapatinib; first compound 0.1265 µM): 0.301
- relative viability (BI-D1870 + Lapatinib; first compound 0.4 µM): 0.343
- relative viability (BI-D1870 + Lapatinib; first compound 1.265 µM): 0.395
- relative viability (BI-D1870 + Lapatinib; first compound 4 µM): 0.269
- relative viability (Zebularine + Luminespib; first compound 1 µM): 0.107
- relative viability (Zebularine + Luminespib; first compound 3.162 µM): 0.134
- relative viability (Zebularine + Luminespib; first compound 10 µM): 0.158
- relative viability (Zebularine + Luminespib; first compound 31.62 µM): 0.131
- relative viability (Zebularine + Luminespib; first compound 100 µM): 0.157
- relative viability (Zebularine + Dasatinib; first compound 1 µM): 0.301
- relative viability (Zebularine + Dasatinib; first compound 3.162 µM): 0.198
- relative viability (Zebularine + Dasatinib; first compound 10 µM): 0.224
- relative viability (Zebularine + Dasatinib; first compound 31.62 µM): 0.0811
- relative viability (Zebularine + Dasatinib; first compound 100 µM): 0.0854

Cell Line: NCI-H1666
- relative viability (BI-D1870 + Navitoclax; first compound 0.04 µM): 0.89
- relative viability (BI-D1870 + Navitoclax; first compound 0.1265 µM): 0.822
- relative viability (BI-D1870 + Navitoclax; first compound 0.4 µM): 0.81
- relative viability (BI-D1870 + Navitoclax; first compound 1.265 µM): 0.933
- relative viability (BI-D1870 + Navitoclax; first compound 4 µM): 0.851
- relative viability (BI-D1870 + Lapatinib; first compound 0.04 µM): 0.825
- relative viability (BI-D1870 + Lapatinib; first compound 0.1265 µM): 0.543
- relative viability (BI-D1870 + Lapatinib; first compound 0.4 µM): 0.639
- relative viability (BI-D1870 + Lapatinib; first compound 1.265 µM): 0.909
- relative viability (BI-D1870 + Lapatinib; first compound 4 µM): 0.383
- relative viability (Zebularine + Luminespib; first compound 1 µM): 1.01
- relative viability (Zebularine + Luminespib; first compound 3.162 µM): 0.932
- relative viability (Zebularine + Luminespib; first compound 10 µM): 0.966
- relative viability (Zebularine + Luminespib; first compound 31.62 µM): 1.01
- relative viability (Zebularine + Luminespib; first compound 100 µM): 0.751
- relative viability (Zebularine + Dasatinib; first compound 1 µM): 0.828
- relative viability (Zebularine + Dasatinib; first compound 3.162 µM): 0.817
- relative viability (Zebularine + Dasatinib; first compound 10 µM): 0.714
- relative viability (Zebularine + Dasatinib; first compound 31.62 µM): 0.993
- relative viability (Zebularine + Dasatinib; first compound 100 µM): 0.689

Cell Line: NCI-H2085
- relative viability (BI-D1870 + Navitoclax; first compound 0.04 µM): 1.14
- relative viability (BI-D1870 + Navitoclax; first compound 0.1265 µM): 1.07
- relative viability (BI-D1870 + Navitoclax; first compound 0.4 µM): 1.11
- relative viability (BI-D1870 + Navitoclax; first compound 1.265 µM): 1.06
- relative viability (BI-D1870 + Navitoclax; first compound 4 µM): 0.865
- relative viability (BI-D1870 + Lapatinib; first compound 0.04 µM): 0.731
- relative viability (BI-D1870 + Lapatinib; first compound 0.1265 µM): 0.71
- relative viability (BI-D1870 + Lapatinib; first compound 0.4 µM): 0.739
- relative viability (BI-D1870 + Lapatinib; first compound 1.265 µM): 0.926
- relative viability (BI-D1870 + Lapatinib; first compound 4 µM): 0.654
- relative viability (Zebularine + Luminespib; first compound 1 µM): 0.625
- relative viability (Zebularine + Luminespib; first compound 3.162 µM): 0.436
- relative viability (Zebularine + Luminespib; first compound 10 µM): 0.339
- relative viability (Zebularine + Luminespib; first compound 31.62 µM): 0.423
- relative viability (Zebularine + Luminespib; first compound 100 µM): 0.277
- relative viability (Zebularine + Dasatinib; first compound 1 µM): 0.209
- relative viability (Zebularine + Dasatinib; first compound 3.162 µM): 0.226
- relative viability (Zebularine + Dasatinib; first compound 10 µM): 0.243
- relative viability (Zebularine + Dasatinib; first compound 31.62 µM): 0.222
- relative viability (Zebularine + Dasatinib; first compound 100 µM): 0.246
